SMILES strings stand for the structures. Like-named read-outs stand apart in the source and are kept apart here. Positions of bridges follow the written chain, without caps; N, C: chain ends. Non-standard residues stand in square brackets, D forms with d. Residues, ends and D or L forms follow the SMILES beside them. 1Nal = N[C@@H](Cc1cccc2ccccc12)C(=O)O

The source of these data is patent US9340590B2 (priority 2011, dated 2016).

Experiment in all cases: cell-based
Assay [1] deals with hNav1.3 (Homo sapiens, UniProt Q9NY46). Particulars: IonWorks Quattro, use-dependent block, hNav1.3; read-out: IWQ Use Nav1.3.
For assay [2], the target named is hNav1.5 (Homo sapiens, UniProt Q14524).
Assay [3] addresses hNav1.7 (Homo sapiens, UniProt Q15858). It is filed as cell-based.
The mark [4] stands for this setting: IonWorks Quattro, use-dependent block, hNav1.7, read-out: IWQ Use Nav1.7.
Setting [5] is: IonWorks Quattro, use-dependent block, hNav1.5, read-out: IWQ Use Nav1.5.

Sequence of hNav1.5 (Q14524 whole entry, looked up): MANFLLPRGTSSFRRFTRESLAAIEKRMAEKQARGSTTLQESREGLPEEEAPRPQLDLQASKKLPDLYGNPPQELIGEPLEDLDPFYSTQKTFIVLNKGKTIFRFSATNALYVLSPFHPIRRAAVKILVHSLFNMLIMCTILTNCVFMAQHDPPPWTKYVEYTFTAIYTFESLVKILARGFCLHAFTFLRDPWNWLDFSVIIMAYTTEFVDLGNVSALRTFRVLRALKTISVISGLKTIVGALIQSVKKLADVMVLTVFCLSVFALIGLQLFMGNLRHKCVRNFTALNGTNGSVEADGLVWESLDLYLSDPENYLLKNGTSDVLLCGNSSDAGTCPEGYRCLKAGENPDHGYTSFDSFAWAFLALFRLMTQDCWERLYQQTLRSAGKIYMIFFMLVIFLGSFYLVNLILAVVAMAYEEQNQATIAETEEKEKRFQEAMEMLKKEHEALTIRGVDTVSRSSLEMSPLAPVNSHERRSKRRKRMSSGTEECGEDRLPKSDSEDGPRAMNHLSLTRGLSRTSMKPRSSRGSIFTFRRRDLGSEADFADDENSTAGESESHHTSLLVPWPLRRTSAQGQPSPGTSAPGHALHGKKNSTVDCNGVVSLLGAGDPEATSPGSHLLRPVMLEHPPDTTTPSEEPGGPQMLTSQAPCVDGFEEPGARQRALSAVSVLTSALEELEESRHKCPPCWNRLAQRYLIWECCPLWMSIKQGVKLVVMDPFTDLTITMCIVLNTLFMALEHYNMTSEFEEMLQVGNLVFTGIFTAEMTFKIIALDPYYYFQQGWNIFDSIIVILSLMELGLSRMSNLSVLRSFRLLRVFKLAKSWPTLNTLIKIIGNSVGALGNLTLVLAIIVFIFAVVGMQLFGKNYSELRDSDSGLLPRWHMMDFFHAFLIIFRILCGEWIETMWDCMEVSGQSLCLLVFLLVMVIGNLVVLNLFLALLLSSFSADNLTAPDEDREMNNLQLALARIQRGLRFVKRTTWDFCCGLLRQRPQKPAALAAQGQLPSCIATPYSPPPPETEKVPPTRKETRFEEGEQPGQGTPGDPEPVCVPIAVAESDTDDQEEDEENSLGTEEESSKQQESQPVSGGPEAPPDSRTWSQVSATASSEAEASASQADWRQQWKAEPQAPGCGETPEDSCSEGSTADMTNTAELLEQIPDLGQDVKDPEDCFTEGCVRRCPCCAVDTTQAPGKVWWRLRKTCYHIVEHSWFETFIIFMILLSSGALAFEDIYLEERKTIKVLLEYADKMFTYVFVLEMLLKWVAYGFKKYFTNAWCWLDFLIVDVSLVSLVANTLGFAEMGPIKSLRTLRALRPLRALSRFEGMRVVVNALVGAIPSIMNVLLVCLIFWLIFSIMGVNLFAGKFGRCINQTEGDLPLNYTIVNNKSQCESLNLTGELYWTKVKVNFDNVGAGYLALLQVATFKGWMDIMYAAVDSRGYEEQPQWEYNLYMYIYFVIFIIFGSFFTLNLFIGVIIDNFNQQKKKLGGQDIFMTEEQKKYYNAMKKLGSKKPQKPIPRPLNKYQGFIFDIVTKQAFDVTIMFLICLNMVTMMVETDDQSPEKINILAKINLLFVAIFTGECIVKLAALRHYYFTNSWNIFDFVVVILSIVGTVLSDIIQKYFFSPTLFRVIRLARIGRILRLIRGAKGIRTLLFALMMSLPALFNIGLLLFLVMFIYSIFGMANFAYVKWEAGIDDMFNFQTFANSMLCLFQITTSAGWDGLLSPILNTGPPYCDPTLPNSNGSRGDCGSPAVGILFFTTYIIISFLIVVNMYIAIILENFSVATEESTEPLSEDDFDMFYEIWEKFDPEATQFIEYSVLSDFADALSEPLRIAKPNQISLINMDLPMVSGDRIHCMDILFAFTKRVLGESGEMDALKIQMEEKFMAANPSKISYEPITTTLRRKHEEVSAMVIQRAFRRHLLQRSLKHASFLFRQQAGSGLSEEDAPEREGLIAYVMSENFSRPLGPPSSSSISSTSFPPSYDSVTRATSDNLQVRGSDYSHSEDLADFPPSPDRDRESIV
Sequence of hNav1.3 (Q9NY46 whole entry, looked up): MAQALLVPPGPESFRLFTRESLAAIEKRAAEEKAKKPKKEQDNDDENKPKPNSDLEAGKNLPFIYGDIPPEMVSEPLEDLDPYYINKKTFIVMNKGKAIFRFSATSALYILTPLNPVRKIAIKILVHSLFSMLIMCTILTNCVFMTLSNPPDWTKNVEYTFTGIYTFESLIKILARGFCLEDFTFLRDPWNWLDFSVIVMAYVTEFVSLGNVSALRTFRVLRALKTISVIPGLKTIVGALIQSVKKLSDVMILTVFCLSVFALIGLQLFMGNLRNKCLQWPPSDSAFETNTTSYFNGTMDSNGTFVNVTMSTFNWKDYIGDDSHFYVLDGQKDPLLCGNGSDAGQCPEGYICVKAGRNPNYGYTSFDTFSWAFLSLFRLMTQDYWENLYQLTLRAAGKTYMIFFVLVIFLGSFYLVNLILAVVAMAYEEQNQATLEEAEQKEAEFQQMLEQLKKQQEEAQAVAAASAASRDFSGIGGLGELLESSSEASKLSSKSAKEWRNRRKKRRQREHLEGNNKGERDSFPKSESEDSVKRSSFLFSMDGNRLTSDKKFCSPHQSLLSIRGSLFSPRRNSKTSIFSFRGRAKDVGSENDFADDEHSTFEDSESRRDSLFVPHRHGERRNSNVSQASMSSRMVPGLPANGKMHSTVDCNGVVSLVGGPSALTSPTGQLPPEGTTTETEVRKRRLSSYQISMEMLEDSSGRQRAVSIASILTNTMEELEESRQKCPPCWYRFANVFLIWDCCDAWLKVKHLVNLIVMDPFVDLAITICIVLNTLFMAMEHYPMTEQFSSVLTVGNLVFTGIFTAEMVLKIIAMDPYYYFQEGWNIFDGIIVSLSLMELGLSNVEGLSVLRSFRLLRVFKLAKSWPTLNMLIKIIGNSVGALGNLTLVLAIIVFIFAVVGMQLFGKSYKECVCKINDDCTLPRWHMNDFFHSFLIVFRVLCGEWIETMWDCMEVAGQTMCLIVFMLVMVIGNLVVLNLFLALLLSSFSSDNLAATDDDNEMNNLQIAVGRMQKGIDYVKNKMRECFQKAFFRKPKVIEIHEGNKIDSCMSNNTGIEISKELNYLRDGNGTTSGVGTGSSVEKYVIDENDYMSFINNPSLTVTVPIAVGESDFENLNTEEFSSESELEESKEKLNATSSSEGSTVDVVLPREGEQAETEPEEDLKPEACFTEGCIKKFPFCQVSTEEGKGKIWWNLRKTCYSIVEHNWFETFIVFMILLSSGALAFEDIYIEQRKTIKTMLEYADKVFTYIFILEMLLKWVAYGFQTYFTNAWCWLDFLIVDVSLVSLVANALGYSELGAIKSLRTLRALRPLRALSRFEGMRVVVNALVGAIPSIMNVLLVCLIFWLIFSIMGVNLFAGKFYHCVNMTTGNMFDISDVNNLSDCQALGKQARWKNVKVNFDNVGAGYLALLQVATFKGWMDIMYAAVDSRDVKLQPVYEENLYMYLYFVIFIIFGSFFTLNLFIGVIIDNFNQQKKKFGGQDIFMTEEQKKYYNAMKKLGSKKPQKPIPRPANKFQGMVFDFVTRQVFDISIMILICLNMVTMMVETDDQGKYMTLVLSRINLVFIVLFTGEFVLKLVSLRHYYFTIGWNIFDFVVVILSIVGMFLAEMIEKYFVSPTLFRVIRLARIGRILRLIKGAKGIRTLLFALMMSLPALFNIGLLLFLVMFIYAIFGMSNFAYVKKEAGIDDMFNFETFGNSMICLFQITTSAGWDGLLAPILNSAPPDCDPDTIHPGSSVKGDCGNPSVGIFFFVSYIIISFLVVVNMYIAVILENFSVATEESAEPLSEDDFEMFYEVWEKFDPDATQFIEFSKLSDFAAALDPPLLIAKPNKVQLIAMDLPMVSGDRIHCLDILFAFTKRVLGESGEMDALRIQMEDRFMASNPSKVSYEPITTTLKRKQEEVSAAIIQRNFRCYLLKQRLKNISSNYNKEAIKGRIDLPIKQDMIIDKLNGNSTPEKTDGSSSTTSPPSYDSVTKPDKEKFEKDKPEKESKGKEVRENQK

As for `CC[C@H](C)[C@@H]1NC(=O)[C@@H]2CSSC[C@@H]3NC(=O)[C@H](C(C)C)NC(=O)[C@H](CC(C)C)NC(=O)[C@H](CC(N)=O)NC(=O)[C@@H]4CCCN4C(=O)[C@H](CCCNC(=N)N)NC(=O)[C@H](CSSC[C@H](NC(=O)[C@@H](N)CC(=O)O)C(=O)N[C@@H](CC(C)C)C(=O)NCC(=O)N[C@@H](C)C(=O)N[C@@H](CCSC)C(=O)N[C@@H](CCCNC(=N)N)C(=O)N[C@@H](CCCCN)C(=O)N2)NC(=O)[C@H](CSSC[C@@H](C(=O)N[C@@H](CCCCN)C(=O)N[C@@H](Cc2ccc(O)cc2)C(=O)N[C@@H](Cc2cccc4ccccc24)C(=O)N[C@@H](Cc2ccccc2)C(N)=O)NC(=O)[C@H](Cc2c[nH]c4ccccc24)NC(=O)[C@H](CCCCN)NC(=O)[C@H](Cc2c[nH]cn2)NC(=O)[C@H]([C@@H](C)O)NC(=O)[C@H](CCCNC(=N)N)NC(=O)[C@H](CO)NC3=O)NC(=O)[C@H](CCCCN)NC(=O)[C@H](CC(=O)O)NC(=O)[C@H](CC(N)=O)NC(=O)[C@H](CC(=O)O)NC(=O)[C@@H]2CCCN2C1=O` [compound 258] (H-DCLGAMRKCIPDNDKCCRPNLVCSRTHKWCKY[1Nal]F-NH2; disulfide 2-17, 9-23, 16-30), the IC50 in assay [1] amounted to 800 nM; in assay [2] (IWQ Use Nav1.5 (μM)), 5 µM; in assay [3] (setting [4]) it was 380 nM.
Turning to `CC[C@H](C)[C@@H]1NC(=O)[C@@H]2CSSC[C@@H]3NC(=O)[C@H](C(C)C)NC(=O)[C@H](CC(C)C)NC(=O)[C@H](CC(N)=O)NC(=O)[C@@H]4CCCN4C(=O)[C@H](CCCNC(=N)N)NC(=O)[C@H](CSSC[C@H](NC(=O)[C@@H](N)CC(=O)O)C(=O)N[C@@H](CC(C)C)C(=O)NCC(=O)N[C@@H](C)C(=O)N[C@@H](CCSC)C(=O)N[C@@H](CCCNC(=N)N)C(=O)N[C@@H](CCCCN)C(=O)N2)NC(=O)[C@H](CSSC[C@@H](C(=O)N[C@@H](CCCCN)C(=O)N[C@@H](Cc2ccc(O)cc2)C(=O)N[C@H](C(=O)N[C@@H](Cc2ccccc2)C(N)=O)C(C)C)NC(=O)[C@H](Cc2c[nH]c4ccccc24)NC(=O)[C@H](CCCNC(=N)N)NC(=O)[C@H](Cc2c[nH]cn2)NC(=O)[C@H]([C@@H](C)O)NC(=O)[C@H](CCCNC(=N)N)NC(=O)[C@H](CO)NC3=O)NC(=O)[C@H](CCCCN)NC(=O)[C@H](CC(=O)O)NC(=O)[C@H](CC(N)=O)NC(=O)[C@H](CC(=O)O)NC(=O)[C@@H]2CCCN2C1=O` [compound 260] (H-DCLGAMRKCIPDNDKCCRPNLVCSRTHRWCKYVF-NH2; disulfide 2-17, 9-23, 16-30), the figures for the IC50 in assay [1], in assay [2] (setting [5]) and in assay [3] (setting [4]) were 240 nM, 5 µM and 330 nM, respectively.
For `CC[C@H](C)[C@@H]1NC(=O)[C@@H]2CSSC[C@@H]3NC(=O)[C@H](C(C)C)NC(=O)[C@H](CC(C)C)NC(=O)[C@H](CC(N)=O)NC(=O)[C@@H]4CCCN4C(=O)[C@H](CCCNC(=N)N)NC(=O)[C@H](CSSC[C@H](NC(=O)[C@@H](N)CC(=O)O)C(=O)N[C@@H](CC(C)C)C(=O)NCC(=O)N[C@@H](C)C(=O)N[C@@H](Cc4c[nH]c5ccccc45)C(=O)N[C@@H](CCCNC(=N)N)C(=O)N[C@@H](CCCCN)C(=O)N2)NC(=O)[C@H](CSSC[C@@H](C(=O)N[C@@H](CCCCN)C(=O)N[C@@H](Cc2ccc(O)cc2)C(=O)N[C@H](C(=O)N[C@@H](Cc2ccccc2)C(N)=O)C(C)C)NC(=O)[C@H](Cc2c[nH]c4ccccc24)NC(=O)[C@H](CCCCN)NC(=O)[C@H](Cc2cnc[nH]2)NC(=O)[C@H]([C@@H](C)O)NC(=O)[C@H](CCCNC(=N)N)NC(=O)[C@H](CO)NC3=O)NC(=O)[C@H](CCCCN)NC(=O)[C@H](CC(=O)O)NC(=O)[C@H](CC(N)=O)NC(=O)[C@H](CC(=O)O)NC(=O)[C@@H]2CCCN2C1=O` [compound 261] (H-DCLGAWRKCIPDNDKCCRPNLVCSRTHKWCKYVF-NH2; disulfide 2-17, 9-23, 16-30), the IC50 in assay [1] turned out to be 670 nM; in assay [2] (setting [5]), 5 µM; in assay [3] it was 1010 nM.
